Drawing on PubChem BioAssay AID2060507 (Molecular Pharmacology Branch, DTP, NCI, 2025), this text covers viability, T/C and IC50 for 9 compounds.

Structures are written as SMILES. Values joined by “and” are separate entries in the source; they are usually repeats but may differ in a detail not shown here. Identical values can stand only once. Some results are limits rather than exact numbers.

In this experiment the test system is 519858-162-T-J1-PDC complex spheroid viability. The experiment can be described thus: Anticancer human tumor 519858-162-T-J1-PDC patient-derived colon adenocarcinoma cell line growth inhibition [GQUAD]. To be noted: for viability, T/C: stronger effect = lower value. The source says: DNA G-quadruplex Stabilizer Agents in Combinations in Complex Spheroids
A high-throughput screen of multi-cell type tumor spheroids was designed to identify active combinations of DNA G-quadruplex stabilizer agents and targeted small molecules. Complex spheroids include a stromal component modeled by human endothelial cells (HUVEC) and fibroblasts modeled by human mesenchymal stem cells (MSCs). The concentration ranges selected for each drug and investigational agent were based upon clinically achievable concentrations if the clinical Cmax of the agent was known.
Compounds. The drugs and investigational agents: pidnarulex (CX-5461; NSC782164), APTO-253 (NSC789042), BRACO-19 (NSC847499), peposertib (NSC802822), ceralasertib (NSC780249), elimusertib (NSC800525), camonsertib (NSC841442), AZD-1390 (NSC803789), olaparib (NSC753686), talazoparib (NSC767125), ART-558 (NSC835418), sotorasib (NSC818433), MRTX-1133 (NSC836407), SN-38 (NSC673596), topotecan (NSC609699), etoposide (NSC141540), doxorubicin (NSC123127), gemcitabine (NSC613327), 5-fluorouracil (NSC19893), paclitaxel (NSC125973), vemurafenib (NSC761431), panobinostat (NSC761190), R-306465 (JNJ-16241199; NSC773264), adavosertib (NSC754352), TP-3654 (NSC805149), carboplatin (NSC241240), KSQ-4279 (NSC840948), and staurosporine (NSC755774) were obtained from the National Cancer Institute (NCI) Developmental Therapeutics Program Chemical Repository (34). The FDA-approved anticancer drug set is available from the NCI Developmental Therapeutics Program. […] The stock solutions were prepared in dimethyl sulfoxide (DMSO, Sigma-Aldrich, St. Louis, MO, cat. D2650) at 800-fold the tested concentration and stored at -70 degrees C prior to their use. All drugs and investigational agents were tested over a range starting from a high concentration at or near the clinical Cmax and decreasing in half-log increments. If the clinical Cmax for an agent had not been determined, the highest concentration tested was 10 microM.
2.3 Cell Culture. All cells were maintained in an incubator at 37 degrees C and 5% CO2 with 95% humidity. The PDC lines were cultured according to standard operating procedures established by the NCI PDMR. All PDCs were thawed and cultured in Matrigel-coated flasks prepared with a working solution of 1X Ham's F-12 nutrient mix, without supplementation (Invitrogen, cat. 11765054), 100 U/mL penicillin-streptomycin (Invitrogen, cat. 15140122), and 2.5% Matrigel (Corning Inc., cat. 354248) for the first three passages. The 857933-349-R-J2-PDC line was cultured in 6C/Colon 1B media, which includes advanced DMEM/F-12 (Thermo Fisher Scientific, cat. 12634028), 10 mM HEPES (Thermo Fisher Scientific, cat. 15630080), 1X GlutaMAX supplement (Thermo Fisher Scientific, cat. 35050061), 0.1 mg/mL primocin (InvivoGen, cat. ant-pm-2), 10% defined fetal bovine serum, heat inactivated (HyClone Laboratories Inc., cat. SH30070.03HI), 50% L-WRN conditioned media (ATCC, cat. CRL-3276), 1.25 mM N-Acetyl-L-cysteine (Sigma-Aldrich, cat. A9165), 10 mM nicotinamide (Sigma-Aldrich, cat. N0636), 1X B-27 supplement (Thermo Fisher Scientific, cat. 17504044), 1X N-2 supplement (Thermo Fisher Scientific, cat. 17502048), 10 microM Y-27632 dihydrochloride (Tocris Bioscience, cat. 1254), and 50 ng/mL human EGF recombinant protein (Thermo Fisher Scientific, cat. PHG0311). The 485176-168-R4-J1-PDC line was cultured in Panc media, which includes all 6C/Colon 1B media components plus 100 ng/mL human FGF-10 (Thermo Fisher Scientific, cat. 100-26), 500 nM SB-431542 (Selleckchem, cat. S1067), and gastrin (Tocris, cat. 3006).
[…]
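Also: spheroids exposed to compounds for 7 days.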

The viability, T/C is the result in the treated group divided by that in the control group, in per cent. What is called IC50 is the concentration that gives 50% inhibition. Turning to `Cc1cccc(N(C)C(=O)C2C(O)CCN2c2nc(C)cc(C(F)(F)F)c2C#N)c1` (stereo not drawn), the viability, T/C is 110% and 112% (compound 0.0316 µM); 88.1% and 75.7% (compound 0.1 µM); 95.8% and 74.5% (compound 0.316 µM); 111% and 116% (compound 1 µM); 106% and 101% (compound 3.16 µM); 93.9% and 80.4% (compound 10 µM). For the same compound, the IC50 (curve of compound) is more than 10 µM.

Regarding `CC(C)(O)C1CCC(Nc2ccc3ncc(-c4cccc(C(F)(F)F)c4)n3n2)CC1` (stereo not drawn), the viability, T/C runs as follows: (compound 0.0316 µM) 79%; (compound 0.1 µM) 119% and 115%; (compound 0.316 µM) 104% and 106%; (compound 1 µM) 80.3% and 73%; (compound 3.16 µM) 34.5% and 13.3%; (compound 10 µM) 48.6% and 45.4%. Moreover, the IC50 (curve of compound) is 2.46 µM and 1.84 µM.

With `O=C(c1cc(Cc2n[nH]c(=O)c3ccccc23)ccc1F)N1CCN(C(=O)C2CC2)CC1`, the viability, T/C by setting is: (compound 0.0316 µM) 86.5% and 87.2%; (compound 0.1 µM) 88.4% and 82.1%; (compound 0.316 µM) 115% and 95.4%; (compound 1 µM) 102% and 79.3%; (compound 3.16 µM) 86.3% and 93%; (compound 10 µM) 103% and 69.9%. Besides, the IC50 (curve of compound) was more than 10 µM.

In the case of `O=c1[nH]cc(F)c(=O)[nH]1`, the viability, T/C reads like this: (compound 0.0316 µM) 91.9%; (compound 0.1 µM) 115%; (compound 0.316 µM) 95.7%; (compound 1 µM) 107%; (compound 3.16 µM) 77%; (compound 10 µM) 80.2%. Besides, for the setting “curve of compound”, the IC50 was more than 10 µM.

Consider `CC(=O)O[C@H]1C(=O)[C@@]2(C)[C@H]([C@H](OC(=O)c3ccccc3)[C@]3(O)C[C@H](OC(=O)[C@H](O)[C@@H](NC(=O)c4ccccc4)c4ccccc4)C(C)=C1C3(C)C)[C@]1(OC(C)=O)CO[C@@H]1C[C@@H]2O`, for which the viability, T/C is, setting by setting: (compound 0.0316 µM) 83.9% and 107% and 108%; (compound 0.1 µM) 113% and 101% and 80.3%; (compound 0.316 µM) 93.4% and 80.2% and 97.1%; (compound 1 µM) 87% and 83.3% and 85.1%; (compound 3.16 µM) 89% and 82.4% and 95.4%; (compound 10 µM) 101% (2×) and 86.7%. The half-inhibitory concentration (IC50) (curve of compound) is more than 10 µM.

Turning to `CC(=O)O[C@H]1C(=O)[C@@]2(C)[C@H]([C@H](OC(=O)c3ccccc3)[C@]3(O)C[C@H](OC(=O)[C@H](O)[C@@H](NC(=O)c4ccccc4)c4ccccc4)C(C)=C1C3(C)C)[C@]1(OC(C)=O)CO[C@@H]1C[C@@H]2O` + Cc1[nH]c2ccc(F)cc2c1-c1nc2c3cccnc3c3ncccc3c2[nH]1, the IC50 (curve of first compound, second compound 0.0316 µM) was more than 10 µM; the half-inhibitory concentration (IC50) (curve of first compound, second compound 0.1 µM) is more than 10 µM; the IC50 (curve of first compound, second compound 0.316 µM) was more than 10 µM; the IC50 (curve of first compound, second compound 1 µM) is more than 10 µM; the IC50 (curve of first compound, second compound 3.16 µM) was more than 10 µM; the IC50 (curve of first compound, second compound 10 µM) is more than 10 µM. The viability, T/C is, setting by setting: (second compound 0.0316 µM, first compound 0.0316 µM) 80.1%; (second compound 0.0316 µM, first compound 0.1 µM) 136%; (second compound 0.0316 µM, first compound 0.316 µM) 103%; (second compound 0.0316 µM, first compound 1 µM) 82.4%; (second compound 0.0316 µM, first compound 3.16 µM) 71.2%; (second compound 0.0316 µM, first compound 10 µM) 79.7%. Also, the viability, T/C runs as follows: (second compound 0.1 µM, first compound 0.0316 µM) 87.8%; (second compound 0.1 µM, first compound 0.1 µM) 97.5%; (second compound 0.1 µM, first compound 0.316 µM) 109%; (second compound 0.1 µM, first compound 1 µM) 98.9%; (second compound 0.1 µM, first compound 3.16 µM) 97%; (second compound 0.1 µM, first compound 10 µM) 116%. The viability, T/C is 91.1% (second compound 0.316 µM, first compound 0.0316 µM); 78% (second compound 0.316 µM, first compound 0.1 µM); 70.8% (second compound 0.316 µM, first compound 0.316 µM); 72.3% (second compound 0.316 µM, first compound 1 µM); 108% (second compound 0.316 µM, first compound 3.16 µM); 126% (second compound 0.316 µM, first compound 10 µM). The viability, T/C by setting is: (second compound 1 µM, first compound 0.0316 µM) 116%; (second compound 1 µM, first compound 0.1 µM) 62.5%; (second compound 1 µM, first compound 0.316 µM) 58.5%; (second compound 1 µM, first compound 1 µM) 89.3%; (second compound 1 µM, first compound 3.16 µM) 69.4%; (second compound 1 µM, first compound 10 µM) 109%. The viability, T/C (second compound 3.16 µM, first compound 0.0316 µM) was 67.5%; the viability, T/C (second compound 3.16 µM, first compound 0.1 µM) was 77.5%; the viability, T/C (second compound 3.16 µM, first compound 0.316 µM) is 51.1%; the viability, T/C (second compound 3.16 µM, first compound 1 µM) is 106%; the viability, T/C (second compound 3.16 µM, first compound 3.16 µM) is 77.8%; the viability, T/C (second compound 3.16 µM, first compound 10 µM) is 55.5%. For the same compound, the viability, T/C by setting is: (second compound 10 µM, first compound 0.0316 µM) 54.5%; (second compound 10 µM, first compound 0.1 µM) 93.7%; (second compound 10 µM, first compound 0.316 µM) 68.1%; (second compound 10 µM, first compound 1 µM) 74.4%; (second compound 10 µM, first compound 3.16 µM) 75.5%; (second compound 10 µM, first compound 10 µM) 104%.

Regarding `O=C(NO)c1cnc(N2CCN(S(=O)(=O)c3ccc4ccccc4c3)CC2)nc1`, the viability, T/C was 97.8% and 112% (compound 0.0316 µM); 76.5% and 58.8% (compound 0.1 µM); 25.8% and 37.5% (compound 0.316 µM); 9.47% and 14.6% (compound 1 µM); 0.68% and 0.35% (compound 3.16 µM); 0.51% and 0.58% (compound 10 µM). Moreover, the concentration for half-maximal inhibition (IC50) (curve of compound) is 0.184 µM and 0.162 µM.

For the compound `Cn1ncnc1[C@H]1c2n[nH]c(=O)c3cc(F)cc(c23)N[C@@H]1c1ccc(F)cc1`, the viability, T/C is, setting by setting: (compound 0.000999 µM) 83.7% and 86.3%; (compound 0.00316 µM) 82.9% and 98.9%; (compound 0.00999 µM) 105% and 58.1%; (compound 0.0316 µM) 92.4% and 96.9%; (compound 0.0999 µM) 119% and 84.3%; (compound 0.316 µM) 116% and 59.9%. The 50% inhibitory concentration (IC50) (curve of compound) is more than 0.316 µM.

`CCc1c2c(nc3ccc(O)cc13)-c1cc3c(c(=O)n1C2)COC(=O)[C@]3(O)CC`: the viability, T/C reads like this: (compound 0.000999 µM) 95% and 84%; (compound 0.00316 µM) 74.7% and 67.6%; (compound 0.00999 µM) 43.7% and 57.5%; (compound 0.0316 µM) 68.9% and 65.7%; (compound 0.0999 µM) 89.6% and 60.6%; (compound 0.316 µM) 64.6% and 78.9%. In addition, the 50% inhibitory concentration (IC50) (curve of compound) was more than 0.316 µM.
